Molecules are shown by their SMILES. Bounds are passed on as bounds.

The first assay relates to Dirofilaria immitis. Description: Effect test on Dirofilaria immitis (larval motility inhibition). The settings on record: 168 h, read-out: motility inhibition rate.
In general, inhibition refers to the relative decrease from the control value, in per cent. Turning to `CC1(C)C(=O)C(=C(Nc2ccc(F)cc2)Nc2ccc(F)cc2)C(=O)CC1c1ccc(Br)cn1` (centres unmarked) [1-44], the inhibition at 100 µM is at least 50%.

As to `O=C1CC(c2nc(-c3ccc(F)cc3)cs2)NC(=O)C1=C(Nc1ccc(F)nc1)Nc1ccc(F)nc1` (centres unmarked) [3-25], the inhibition at 100 µM is at least 50%. Regarding `CNC(Nc1ccc(F)cc1)=C1C(=O)CN(c2cnc(C#N)c(OC)c2)N(C(=O)OC)C1=O` [6-21], the inhibition at 100 µM is at least 50%. The same measure, in the same setting: in the case of `Cc1cc(NC(Nc2ccc(F)cc2)=C2C(=O)CC(c3ccc(C(F)(F)F)cc3)CC2=O)no1` (centres unmarked) [1-15] it was at least 50%; in that of `CN(C)CCNC(NCCN(C)C)=C1C(=O)CC(c2ccc(C(F)(F)F)cc2)CC1=O` (centres unmarked) [1-42], at least 50%; in that of `O=C1CC(c2ccc(Br)cn2)CC(=O)C1=C(Nc1ccc(F)nc1)Nc1ccc(F)nc1` (centres unmarked) [1-6], at least 50%. `O=C1CC(c2ccc(C(F)(F)F)cc2)CC(=O)C1=C(Nc1ccc(F)nc1)Nc1cccnn1` (centres unmarked) [1-116]: the inhibition at 100 µM was at least 50%. With `CNC(Nc1ccc(F)cc1)=C1C(=O)CN(c2cnc(C#N)c(Cl)c2)N(C)C1=O` [6-44], the inhibition at 100 µM is at least 50%. The same measure, in the same setting: in the case of `O=C1CC(c2ccc(Cl)s2)CC(=O)C1=C(Nc1ccc(F)nc1)Nc1ccc(F)nc1` (centres unmarked) [1-49] it was at least 50%; in that of `O=C1CC(c2ccc(C(F)(F)F)cc2)CC(=O)C1=C(Nc1ccc(F)cc1)Nc1ccc(F)cc1` (centres unmarked) [compound No. 1-9, 2-(bis((4-fluorophenyl)amino)methylene)-5-(4-(trifluoromethyl)phenyl)cyclohexane-1,3-dione], at least 50%; in that of `O=C1CC(c2ccc(C(F)(F)F)cc2)CC(=O)C1=C(NCc1ccccn1)Nc1ccc(F)cc1` (centres unmarked) [1-19], at least 50%. As for `CNC(Nc1ccc(F)nc1)=C1C(=O)CC(c2ccc(C(F)(F)F)cc2)CC1=O` (centres unmarked) [1-56], the inhibition at 100 µM is at least 50%.

As for `CSC(Nc1ccc(F)nc1)=C1C(=O)CCN(c2ccc(C(F)(F)F)cc2)C1=O` [9-34], the inhibition at 100 µM was at least 50%.

On to `CCC1(c2ccc(C(F)(F)F)nc2)CN(C)C(=O)C(=C(NC)Nc2ccc(F)cc2)C1=O` (centres unmarked) [compound No. 3-2], for which the inhibition at 100 µM is at least 50%. In the case of `CNC(Nc1ccn(C)n1)=C1C(=O)CC(c2ccc(C(F)(F)F)cc2)CC1=O` (centres unmarked) [1-117], the inhibition at 100 µM is at least 50%.

For `O=C1CC(c2ccc(C(F)(F)F)cc2)CC(=O)C1=C(Nc1ccc(F)cc1)NC1CC1` (centres unmarked) [1-36], the inhibition at 100 µM is at least 50%.

Take `CCC1(c2ccc3ccccc3n2)CN(C)C(=O)C(=C(Nc2ccc(F)nc2)SC)C1=O` (centres unmarked) [9-38]: the inhibition at 100 µM is at least 50%.

As to `O=C1CC(c2ccc(C(F)(F)F)nc2)OC(=O)C1=C(Nc1ccc(F)cn1)Nc1ccc(F)cn1` (centres unmarked) [2-2], the inhibition at 100 µM was at least 50%. The same measure, in the same setting: the value for `CNC(Nc1ccc(F)cc1)=C1C(=O)CCCN(c2ccc(C(F)(F)F)cc2)C1=O` [5-2] was at least 50%; that for `O=C1CC(c2ccc(Br)cn2)CC(=O)C1=C(Nc1ccnc(F)c1)Nc1ccnc(F)c1` (centres unmarked) [1-7] was at least 50%. Regarding `CC(C)(C)OC(=O)C1CC(=O)C(=C(Nc2ccc(F)cc2)Nc2ccc(F)nc2)C(=O)N1` (centres unmarked) [3-39], the inhibition at 100 µM is at least 50%. For the compound `O=C1CC(c2ccc(C(F)(F)F)cc2)CC(=O)C1=C(NCC(F)(F)F)Nc1ccc(F)cc1` (centres unmarked) [1-23], the inhibition at 100 µM was at least 50%. Turning to `CC1(C)C(=O)C(=C(Nc2ccc(F)cn2)Nc2ccc(F)cn2)C(=O)CC1c1ccc(Br)cn1` (centres unmarked) [1-45], the inhibition at 100 µM was at least 50%.

Regarding `O=C1CC(c2ccc(C(F)(F)F)cc2)C(c2ccncc2)C(=O)C1=C(Nc1ccc(F)nc1)Nc1ccc(F)nc1` (centres unmarked) [1-72], the inhibition at 100 µM was at least 50%. Regarding `CCCNC(Nc1ccc(F)cc1)=C1C(=O)CN(c2ccc(C#N)cn2)CC1=O` [4-3], the inhibition at 100 µM was at least 50%. Same read-out and setting: in the case of `O=C1CC(c2ccc(C(F)(F)F)nc2)OC(=O)C1=C(Nc1ccnc(F)c1)Nc1ccnc(F)c1` (centres unmarked) [2-1] it was at least 50%; in that of `O=C1CC(c2ccc(C(F)(F)F)nc2)OC(=O)C1=C(Nc1ccc(F)nc1)Nc1ccc(F)nc1` (centres unmarked) [2-3], at least 50%.

On to `CNC(Nc1ccc(F)cc1)=C1C(=O)CC(c2ccc(Br)cn2)CC1=O` (centres unmarked) [1-10], for which the inhibition at 100 µM is at least 50%. Still for that read-out and setting: the value for `O=C1CCC(CC(F)(F)F)C(=O)C1=C(Nc1ccc(F)cc1)Nc1ccc(F)nc1` (centres unmarked) [1-54] was at least 50%; that for `CSC(Nc1ccc(F)nc1)=C1C(=O)CC(c2ccc(Br)s2)NC1=O` (centres unmarked) [9-33] was at least 50%.

Consider `CCC1(c2ccc(C(F)(F)F)cc2)CN(C)C(=O)C(=C(Nc2ccc(F)nc2)Nc2ccc(F)nc2)C1=O` (centres unmarked) [3-10], for which the inhibition at 100 µM is at least 50%. Regarding `O=C1CC(c2ccc(C(F)(F)F)cc2)CC(=O)C1=C(Nc1ccc(F)cn1)Nc1ccc(F)cn1` (centres unmarked) [1-1], the inhibition at 100 µM was at least 50%. On the same count and under the same terms, the value for `CNC(Nc1ccc(F)cc1)=C1C(=O)CC(c2ccc(C(F)(F)F)cc2)CC1=O` (centres unmarked) [1-57] was at least 50%; that for `O=C1CC(c2ccc(C(F)(F)F)cc2)CC(=O)C1=C(Nc1ccc(F)cc1)NC1CCOc2ccccc21` (centres unmarked) [1-69] was at least 50%; that for `CNC(Nc1ccc(F)cc1)=C1C(=O)CN(c2ccc(C#N)nc2)N(Cc2ccccc2)C1=O` [6-27] was at least 50%. On the same count and under the same terms, in the case of `CCOC(=O)N1C(=O)C(=C(NC)Nc2ccc(F)c(F)c2)C(=O)CN1c1ccc(C#N)c(F)c1` [6-29] it was at least 50%. For the compound `CC1(C)C(=O)C(=C(Nc2ccnc(F)c2)Nc2ccnc(F)c2)C(=O)CC1c1ccc(Br)cn1` (centres unmarked) [1-47], the inhibition at 100 µM was at least 50%. Take `CNC(Nc1ccc(F)cc1)=C1C(=O)CN(c2ccccc2)N(c2ccccc2)C1=O` [6-35]: the inhibition at 100 µM was at least 50%. On the same count and under the same terms, in the case of `Cn1nc(-c2ccccc2)c(C2CC(=O)C(=C(Nc3ccc(F)cc3)Nc3ccc(F)cc3)C(=O)C2)c1Cl` (centres unmarked) [1-80] it was at least 50%.

For the compound `CNC(Nc1ccc(F)nc1)=C1C(=O)CC(c2cc(OC(F)F)n(C)n2)NC1=O` (centres unmarked) [3-20], the inhibition at 100 µM is at least 50%. As for `O=C1CC(c2ccc(C(F)(F)F)cc2)CC(=O)C1=C(NCc1ccc(F)cc1)Nc1ccc(F)cc1` (centres unmarked) [1-34], the inhibition at 100 µM was at least 50%. Still for that read-out and setting: in the case of `CCOC(=O)N1C(=O)C(=C(NCc2cccc(F)c2)Nc2cccc(F)c2)C(=O)CN1c1ccc(C#N)c(Cl)c1` [6-31] it was at least 50%; in that of `O=C1CC(c2ccc(C(F)(F)F)cc2)CC(=O)C1=C(NCc1ccc(OC(F)(F)F)cc1)Nc1ccc(F)cc1` (centres unmarked) [1-14], at least 50%; in that of `COc1ncccc1NC(Nc1cccnc1OC)=C1C(=O)CC(c2ccc(C(F)(F)F)cc2)CC1=O` (centres unmarked) [1-118], at least 50%. `CNC(NC)=C1C(=O)CC(c2ccco2)CC1=O` (centres unmarked) [1-11]: the inhibition at 100 µM is at least 50%. On to `O=C1CC(c2ccc(C(F)(F)F)cc2)CC(=O)C1=C(NCCBr)Nc1ccc(F)cc1` (centres unmarked) [1-27], for which the inhibition at 100 µM is at least 50%.

Take `CNC(Nc1ccc(F)cc1)=C1C(=O)CC(c2ccc(C(F)(F)F)cc2)N(C)C1=O` (centres unmarked) [compound No. 3-1, 3-(((4-fluorophenyl)amino) (methylamino)methylene)-1-methyl-6-(4-(trifluoromethyl)phenyl)piperidine-2,4-dione]: the inhibition at 100 µM was at least 50%. On to `O=C1CCC(CC(F)(F)F)C(=O)C1=C(Nc1ccc(F)nc1)Nc1ccc(F)nc1` (centres unmarked) [1-52], for which the inhibition at 100 µM is at least 50%.

Regarding `CC1(C)C(=O)C(=C(Nc2ccc(F)nc2)Nc2ccc(F)nc2)C(=O)CC1c1ccc(Br)cn1` (centres unmarked) [1-46], the inhibition at 100 µM is at least 50%. Still for that read-out and setting: the value for `COCCNC(NCCOC)=C1C(=O)CC(c2ccc(C(F)(F)F)cc2)CC1=O` (centres unmarked) [1-29] was at least 50%; that for `O=C1CC(c2ccc(C(F)(F)F)cc2)C(c2ccccn2)C(=O)C1=C(Nc1ccc(F)cc1)Nc1ccc(F)nc1` (centres unmarked) [1-73] was at least 50%. Same read-out and setting: in the case of `O=C1CC(c2ccc(Cl)s2)CC(=O)C1=C(Nc1ccc(F)cn1)Nc1ccc(F)cn1` (centres unmarked) [1-2] it was at least 50%; in that of `CNC(Nc1ccc(F)cc1)=C1C(=O)CC(c2c(-c3ccccc3)nn(C)c2Cl)CC1=O` (centres unmarked) [1-82], at least 50%; in that of `CCC1(c2ccc(C(F)(F)F)cc2)CN(C)C(=O)C(=C(Nc2ccc(F)cc2)Nc2ccc(F)nc2)C1=O` (centres unmarked) [3-9], at least 50%.

`CCC1(c2ccc(C(F)(F)F)cc2)CN(C)C(=O)C(=C(NC)Nc2ccc(F)nc2)C1=O` (centres unmarked) [3-8]: the inhibition at 100 µM is at least 50%. Turning to `COCCNC(Nc1ccc(F)cc1)=C1C(=O)CC(c2ccc(C(F)(F)F)cc2)CC1=O` (centres unmarked) [1-25], the inhibition at 100 µM is at least 50%. As for `O=C1CC(c2ccc(C(F)(F)F)nc2)CC(=O)C1=C(Nc1ccc(F)nc1)Nc1ccc(F)nc1` (centres unmarked) [1-8], the inhibition at 100 µM was at least 50%.

In the case of `Cn1nc(-c2ccccc2)c(C2CC(=O)C(=C(Nc3ccc(F)cc3)Nc3ccc(F)nc3)C(=O)C2)c1Cl` (centres unmarked) [1-79], the inhibition at 100 µM was at least 50%. Same read-out and setting: in the case of `CCC1(c2ccc(C(F)(F)F)nc2)CN(C)C(=O)C(=C(Nc2ccc(F)nc2)SC)C1=O` (centres unmarked) [9-37] it was at least 50%; in that of `O=C1CC(c2ccc(C(F)(F)F)cc2)CC(=O)C1=C(Nc1ccc(F)cc1)Nc1cnccn1` (centres unmarked) [1-64], at least 50%; in that of `O=C1CC(c2ccc(C(F)(F)F)cc2)CC(=O)C1=C(Nc1ccc(F)nc1)Nc1ccc(F)nc1` (centres unmarked) [1-3], at least 50%. Still for that read-out and setting: in the case of `O=C1CC(c2cnc(Cl)c(Br)c2)NC(=O)C1=C(Nc1ccc(F)cc1)Nc1ccc(F)nc1` (centres unmarked) [3-43] it was at least 50%. Same read-out and setting: in the case of `O=C1CC(c2ccc(C(F)(F)F)cc2)CC(=O)C1=C(Nc1ccnc(F)c1)Nc1ccnc(F)c1` (centres unmarked) [1-4] it was at least 50%; in that of `O=C1CC(c2ccc(Br)cn2)CC(=O)C1=C(Nc1ccc(F)cn1)Nc1ccc(F)cn1` (centres unmarked) [1-5], at least 50%.

For `CNC(Nc1ccc(F)nc1)=C1C(=O)CC(c2ccc(C(F)(F)F)cc2)C(c2ccccn2)C1=O` (centres unmarked) [1-70], the inhibition at 100 µM is at least 50%.

The subject of a further assay is Plutella xylostella. The assay is described as follows: Insecticidal test against Plutella xylostella. The settings on record: in Brassica rapa, 144 h, read-out: corrected mortality (%), assessment.
Description: Six days after the immersion in the drug solution, the number of surviving insects was examined.
One may read the mortality as the percentage killed. On to `CC1(C)C(=O)C(=C(Nc2ccc(F)cc2)Nc2ccc(F)cc2)C(=O)CC1c1ccc(Br)cn1` (centres unmarked) [1-44], for which the mortality at 500 µg/mL was 100%. Turning to `O=C1CC(c2nc(-c3ccc(F)cc3)cs2)NC(=O)C1=C(Nc1ccc(F)nc1)Nc1ccc(F)nc1` (centres unmarked) [3-25], the mortality at 500 µg/mL came to 100%. For `O=C1CC(c2ccc(C(F)(F)F)cc2)CC(=O)C1=C(Nc1ccc(F)nc1)Nc1cccnn1` (centres unmarked) [1-116], the mortality at 500 µg/mL was 100%. On the same count and under the same terms, the value for `CC(C)(C)OC(=O)C1CC(=O)C(=C(Nc2ccc(F)cc2)Nc2ccc(F)nc2)C(=O)N1` (centres unmarked) [3-39] was 100%; that for `O=C1CC(c2ccc(C(F)(F)F)cc2)CC(=O)C1=C(NCC(F)(F)F)Nc1ccc(F)cc1` (centres unmarked) [1-23] was 100%; that for `CC1(C)C(=O)C(=C(Nc2ccc(F)cn2)Nc2ccc(F)cn2)C(=O)CC1c1ccc(Br)cn1` (centres unmarked) [1-45] was 100%. In the case of `CCCNC(Nc1ccc(F)cc1)=C1C(=O)CN(c2ccc(C#N)cn2)CC1=O` [4-3], the mortality at 500 µg/mL is 100%. On to `CNC(Nc1ccc(F)cc1)=C1C(=O)CC(c2ccc(Br)cn2)CC1=O` (centres unmarked) [1-10], for which the mortality at 500 µg/mL is 100%. As for `O=C1CC(c2ccc(C(F)(F)F)cc2)CC(=O)C1=C(Nc1ccc(F)cn1)Nc1ccc(F)cn1` (centres unmarked) [1-1], the mortality at 500 µg/mL was 100%.
